Drawing on PubChem BioAssay (NCI), this text covers TGI and GI50 for twelve compounds.

SMILES strings stand for the structures.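 Method: 48-hour compound exposure of cells in 96-well plates, five concentrations, linear interpolation of endpoints. GI50: concentration for 50% inhibition of growth. TGI: concentration producing complete growth inhibition.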

Some test systems named below: 786-0 renal; UACC-62 melanoma; SW-620 colon; A498 renal; M14 melanoma; ACHN renal; SR leukemia; SNB-75 CNS; SN12C renal; SF-539 CNS.
Test in all cases: inhibition of tumour cell growth, NCI panel, 48 h

For `CC(NC(=O)C1(N)CCCC1)C(=O)O` (configuration not stated), the TGI with 786-0 renal, in the experiment with UACC-62 melanoma, in the experiment on SW-620 colon, with A498 renal, with M14 melanoma and in the experiment on ACHN renal was above 100 µM each time. The TGI in the experiment with SR leukemia, with SNB-75 CNS and in the experiment with SN12C renal was above 100 µM each time.

As for `COc1cc(Cl)c(C)cc1NC(=O)c1cc2ccccc2cc1O`, the GI50 in the experiment on 786-0 renal is 3.13 µM; with UACC-62 melanoma, 1.49 µM; in the experiment with SW-620 colon, 3.27 µM; in the experiment with A498 renal it was 1.65 µM; in the experiment with SF-539 CNS, 2.81 µM; with M14 melanoma, 2.85 µM. Besides, the GI50 with ACHN renal was 2.67 µM; in the experiment on SR leukemia, 2.79 µM; in the experiment with SNB-75 CNS, 2.4 µM; in the experiment on SN12C renal it was 1.68 µM. The TGI with 786-0 renal was 8.53 µM; with UACC-62 melanoma, 8.14 µM; in the experiment on SW-620 colon it was 13.6 µM; in the experiment with A498 renal, 4.77 µM; in the experiment with SF-539 CNS, 10.4 µM; in the experiment on M14 melanoma, 9.53 µM. The TGI in the experiment on ACHN renal is 11.4 µM; in the experiment on SR leukemia, 11.9 µM; in the experiment on SNB-75 CNS, 9.37 µM; in the experiment with SN12C renal, 10.1 µM.

In the case of `Cc1cnc2n(c1=O)Cc1ccccc1CO2`, the GI50 with 786-0 renal is 18.8 µM; in the experiment on UACC-62 melanoma it was 14.7 µM; in the experiment with SW-620 colon it was 17.3 µM; with A498 renal, 19.5 µM; in the experiment with SF-539 CNS it was 24 µM; with M14 melanoma it was 14.5 µM. The GI50 in the experiment on ACHN renal was 17.4 µM; in the experiment on SR leukemia, 9.11 µM; with SNB-75 CNS, 25.3 µM; in the experiment with SN12C renal, 23.2 µM. Moreover, the TGI in the experiment on 786-0 renal was 39.4 µM; in the experiment with UACC-62 melanoma, 28.7 µM; in the experiment on SW-620 colon it was 49 µM; in the experiment with A498 renal it was 45.4 µM; in the experiment with SF-539 CNS it was 60 µM; with M14 melanoma, 29.1 µM. For the same compound, the TGI in the experiment on ACHN renal was 33.8 µM; in the experiment with SR leukemia, 27.9 µM; in the experiment on SNB-75 CNS, above 64 µM; in the experiment on SN12C renal it was 71.3 µM.

Consider `CC(=O)NC1C(OCc2ccccc2)OC(COC(=O)CCCCCCCCCCNC(=O)CCNc2ccc([N+](=O)[O-])c3[nH]c4ccc(O)cc4c(=O)c23)C(O)C1OC(C)C(=O)N[C@H](C(=O)N[C@H](CCC(=O)O)C(N)=O)C(C)C` (some centres not stated), for which the TGI in the experiment on 786-0 renal, in the experiment on UACC-62 melanoma, in the experiment on A498 renal, in the experiment with SF-539 CNS, in the experiment with M14 melanoma and with ACHN renal was above 100 µM throughout. Further, the TGI was 45.4 µM in the experiment with SR leukemia, 64.8 µM in the experiment on SNB-75 CNS and above 100 µM in the experiment on SN12C renal.

For the compound `CC1(C)OC(=O)C(c2ccsc2)C(=O)O1`, the TGI in the experiment on 786-0 renal, in the experiment on UACC-62 melanoma, in the experiment with SW-620 colon, in the experiment on SF-539 CNS, in the experiment on M14 melanoma and in the experiment on ACHN renal was above 100 µM in each case. The TGI in the experiment on SR leukemia, in the experiment on SNB-75 CNS and in the experiment with SN12C renal was above 100 µM in each case.

As to `COc1cc(C2C(Cl)C(=O)N2NC(=O)c2ccccc2O)cc(OC)c1OC` (configuration not stated), the TGI in the experiment on 786-0 renal, in the experiment on UACC-62 melanoma, in the experiment with SW-620 colon, in the experiment with SF-539 CNS, with M14 melanoma and in the experiment with ACHN renal was above 10 µM throughout. The TGI in the experiment on SR leukemia and in the experiment with SNB-75 CNS was above 10 µM in each case.

Take `Fc1cccc(C2SCc3nc4ccccc4n32)c1` (configuration not stated): the TGI in the experiment on 786-0 renal, in the experiment on UACC-62 melanoma, in the experiment on SW-620 colon, in the experiment on SF-539 CNS, in the experiment on ACHN renal and with SR leukemia was above 100 µM throughout. Further, the TGI in the experiment with SNB-75 CNS and in the experiment with SN12C renal was above 100 µM in each case.

For `CC(=O)O[C@H]1CC[C@@]2(C)[C@@H](CC[C@@H]3[C@@H]2CC(=O)[C@@]2(C)[C@H]3C[C@@H]3CC(C)=CC(=O)[C@@H]32)C1`, the TGI in the experiment with 786-0 renal, in the experiment with UACC-62 melanoma, in the experiment on SW-620 colon, in the experiment on A498 renal, with M14 melanoma and with ACHN renal was above 100 µM in each case. Moreover, the figures for the TGI in the experiment with SR leukemia, in the experiment on SNB-75 CNS and with SN12C renal were above 100 µM, 73.8 µM and above 100 µM, respectively.

Regarding `c1ccc2c(c1)-c1nc3ccccc3cc1C2N1CCOCC1` (configuration not stated), the TGI in the experiment on 786-0 renal, with UACC-62 melanoma, with SW-620 colon, in the experiment with A498 renal, in the experiment on M14 melanoma and in the experiment on ACHN renal was above 100 µM in each case. Besides, the TGI in the experiment on SR leukemia, in the experiment on SNB-75 CNS and in the experiment with SN12C renal was above 100 µM throughout.

As to `OC(c1cc2c(Cl)cc(Cl)cc2c2cc(C(F)(F)F)ccc12)C1CCCCN1` (configuration not stated), the GI50 was 1.66 µM in the experiment on 786-0 renal; 1.78 µM in the experiment with UACC-62 melanoma; 1.76 µM in the experiment with SW-620 colon; 1.46 µM in the experiment with A498 renal; 2.04 µM in the experiment with M14 melanoma; 1.82 µM with ACHN renal. The values for the GI50 in the experiment on SR leukemia, in the experiment on SNB-75 CNS and in the experiment on SN12C renal were 1.49 µM, 1.79 µM and 1.8 µM, respectively. In addition, the TGI in the experiment on 786-0 renal is 3.5 µM; in the experiment with UACC-62 melanoma it was 3.42 µM; in the experiment with SW-620 colon, 3.64 µM; in the experiment with A498 renal it was 2.9 µM; in the experiment with M14 melanoma it was 4.12 µM; with ACHN renal it was 3.65 µM. The values for the TGI in the experiment with SR leukemia, in the experiment with SNB-75 CNS and in the experiment on SN12C renal were 3.95 µM, 3.36 µM and 3.38 µM, respectively.

In the case of `CN=C(NC#N)NCc1ccccc1`, the TGI in the experiment with 786-0 renal, in the experiment with SW-620 colon, in the experiment with A498 renal, in the experiment on SF-539 CNS, with M14 melanoma and with ACHN renal was above 100 µM each time. Also, the TGI in the experiment with SR leukemia, in the experiment with SNB-75 CNS and with SN12C renal was above 100 µM throughout.

Take `O=C1C2Cc3ccccc3CN2C(=O)N1CCN1CCOCC1` (configuration not stated): the TGI with 786-0 renal, in the experiment on UACC-62 melanoma, with SW-620 colon, with A498 renal, in the experiment on SF-539 CNS and in the experiment on M14 melanoma was above 100 µM each time. Moreover, the TGI in the experiment with ACHN renal, with SR leukemia and in the experiment with SN12C renal was above 100 µM throughout.
